Laboratory results reported in ChEMBL document CHEMBL5724914, “Linking interpersonal differences in gut microbiota composition and drug biotransformation activity” (2024).

What was measured:
[1] = human gut metagenome, 24 h, 2 µM
[2] = human gut metagenome, 24 h, 2 µM; remark: listed apart in the source
[3] = The drug is tested on Z-025 corresponding to rabbit gut metagenome with ENA study accession number: PRJEB37062 and ENA sample accession number: ERS12561824 for biotransformation under anaerobic condition. The drug concentrations were measured over 9 timepoints collected between 0 and 24 hours of incubation by liquid-chromatography-coupled mass spectrometry (LC–MS); conditions: 2 µM
[4] = The drug is tested on WLS-170 corresponding to human gut metagenome with ENA study accession number: PRJEB37062 and ENA sample accession number: ERS12561762 for biotransformation under anaerobic condition. The drug concentrations were measured over 9 timepoints collected between 0 and 24 hours of incubation by liquid-chromatography-coupled mass spectrometry (LC–MS); conditions: 2 µM
[5] = The drug is tested on Z-004 corresponding to metagenome with ENA study accession number: PRJEB37062 and ENA sample accession number: ERS12561804 for biotransformation under anaerobic condition. The drug concentrations were measured over 9 timepoints collected between 0 and 24 hours of incubation by liquid-chromatography-coupled mass spectrometry (LC–MS); conditions: 2 µM
[6] = The drug is tested on Z-016 corresponding to mouse gut metagenome with ENA study accession number: PRJEB37062 and ENA sample accession number: ERS12561815 for biotransformation under anaerobic condition. The drug concentrations were measured over 9 timepoints collected between 0 and 24 hours of incubation by liquid-chromatography-coupled mass spectrometry (LC–MS); conditions: 2 µM
[7] = The drug is tested on Z-029 corresponding to rat gut metagenome with ENA study accession number: PRJEB37062 and ENA sample accession number: ERS12561828 for biotransformation under anaerobic condition. The drug concentrations were measured over 9 timepoints collected between 0 and 24 hours of incubation by liquid-chromatography-coupled mass spectrometry (LC–MS); conditions: 2 µM
[8] = The drug is tested on Z-014 corresponding to rat gut metagenome with ENA study accession number: PRJEB37062 and ENA sample accession number: ERS12561814 for biotransformation under anaerobic condition. The drug concentrations were measured over 9 timepoints collected between 0 and 24 hours of incubation by liquid-chromatography-coupled mass spectrometry (LC–MS); conditions: 2 µM
[9] = human gut metagenome, 24 h, 2 µM; remark: listed apart in the source

Measured: Bacterial Biotransformation
Note: call rule not given here.

COc1ccc(C(CN(C)C)C2(O)CCCCC2)cc1 (stereo unspecified) [VENLAFAXINE]
Compound NOT metabolized: [1] | [2] | [3] | [4] | [5] | [6] | [7] | [8] | [9]

O=C1CC2(CCCC2)CC(=O)N1CCCCN1CCN(c2ncccn2)CC1 [BUSPIRONE]
Compound NOT metabolized: [1] | [2] | [3] | [5] | [6] | [7] | [8]
Compound metabolized: [4] | [9]

CC(C)(C)NCC(O)c1cc(Cl)c(N)c(Cl)c1 (stereo unspecified) [CLENBUTEROL]
Compound NOT metabolized: [1] | [2] | [3] | [4] | [5] | [6] | [7] | [8] | [9]

Br.COc1ccc2c(c1)[C@]13CCCC[C@@H]1[C@H](C2)N(C)CC3.O [DEXTROMETHORPHAN HYDROBROMIDE]
Compound NOT metabolized: [1] | [2] | [4] | [6] | [7] | [8]
Compound metabolized: [3] | [5] | [9]

CC(C)(C)NC[C@H](O)COc1nsnc1N1CCOCC1.O=C(O)/C=C\C(=O)O [TIMOLOL MALEATE]
Compound NOT metabolized: [1] | [2] | [3] | [4] | [5] | [6] | [7] | [8] | [9]

Cc1ccccc1C(OCCN(C)C)c1ccccc1.O=C(O)CC(O)(CC(=O)O)C(=O)O (stereo unspecified) [ORPHENADRINE CITRATE]
Compound metabolized: [3] | [4] | [5] | [6] | [9]
Compound NOT metabolized: [1] | [2] | [7] | [8]

CCN(CC)CCOC(=O)C1(C2CCCCC2)CCCCC1 [DICYCLOMINE]
Compound metabolized: [1] | [4] | [9]
Compound NOT metabolized: [2] | [3] | [5] | [6] | [7] | [8]

Nc1nnc(-c2cccc(Cl)c2Cl)c(N)n1 [LAMOTRIGINE]
Compound metabolized: [4]
Compound NOT metabolized: [1] | [2] | [3] | [5] | [6] | [7] | [8] | [9]

OC(c1cc(C(F)(F)F)nc2c(C(F)(F)F)cccc12)C1CCCCN1 (stereo unspecified) [MEFLOQUINE]
Compound metabolized: [4] | [7] | [9]
Compound NOT metabolized: [1] | [2] | [3] | [5] | [6] | [8]

CC[C@@]1(O)C(=O)OCc2c1cc1n(c2=O)Cc2cc3c(CN(C)C)c(O)ccc3nc2-1 [TOPOTECAN]
Compound NOT metabolized: [1] | [2] | [3] | [4] | [5] | [6] | [7] | [8] | [9]

COc1ccc(Cc2nccc3cc(OC)c(OC)cc23)cc1OC [PAPAVERINE]
Compound metabolized: [1] | [3] | [4] | [9]
Compound NOT metabolized: [2] | [5] | [6] | [7] | [8]

O=C1CN2Cc3c(ccc(Cl)c3Cl)N=C2N1 [ANAGRELIDE]
Compound NOT metabolized: [1] | [2] | [3] | [5] | [6] | [7] | [8]
Compound metabolized: [4] | [9]

CN(C)C(=O)Oc1cccc([N+](C)(C)C)c1.[Br-] [NEOSTIGMINE BROMIDE]
Compound NOT metabolized: [1] | [2] | [3] | [4] | [5] | [6] | [8] | [9]
Compound metabolized: [7]

CC1Cc2ccccc2N1NC(=O)c1ccc(Cl)c(S(N)(=O)=O)c1 (stereo unspecified) [INDAPAMIDE]
Compound NOT metabolized: [1] | [2] | [3] | [4] | [5] | [6] | [7] | [8] | [9]
